# doi:10.1101/2021.12.13.472388v3 (biorxiv, 2022)
# Tests used:
# [1] = biological target: BRD4-BDI (Homo sapiens, UniProt O60885); assay: HTRF peptide displacement; format: binding; conditions: 6 h, room temperature
# [2] = biological target: CECR2 (Homo sapiens, UniProt Q9BXF3); assay: BROMOscan competition binding; conditions: single dose 1 μM; unreliable (may be per cent of control, direction unclear)
# [3] = biological target: T1, TRIM33 (Homo sapiens, UniProt Q9UPN9); assay: BROMOscan competition binding; conditions: single dose 1 μM; unreliable (may be per cent of control, direction unclear)
# T1 sequence (Q9UPN9 882-1087 limits assumed): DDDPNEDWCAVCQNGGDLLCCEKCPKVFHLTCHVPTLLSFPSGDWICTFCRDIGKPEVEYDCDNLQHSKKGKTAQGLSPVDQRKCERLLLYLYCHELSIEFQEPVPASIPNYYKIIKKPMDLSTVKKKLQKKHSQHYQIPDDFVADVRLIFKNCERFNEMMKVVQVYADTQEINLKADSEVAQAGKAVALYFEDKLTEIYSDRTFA
# [4] = test system: NB4; assay: cells; parameters: species or system MOLM-14, CCRF-CEM, K-562; conditions: Homo sapiens, NB-4, 72 h, read-out: Cells viability EC50 NB4 (µM)
# [5] = test system: K-562; assay: cells; parameters: species or system MOLM-14, CCRF-CEM, NB4; conditions: Homo sapiens, K562, 72 h, read-out: Cells viability EC50 K-562 (µM)
SMILES,IC50 [1],further results
CC(=O)N1CCc2c(sc3nc(SCC(=O)Nc4cc(Cl)ccc4C)n(Cc4ccco4)c(=O)c23)C1 [compound 1],4 ± 0.5 µM,–
Cc1ccc(-c2c(C)noc2C)cc1S(=O)(=O)Nc1cccc(C)c1C [compound 2],11 ± 0.9 µM,–
CCc1cccc(C)c1NS(=O)(=O)c1cc(-c2c(C)noc2C)ccc1C [compound 3],9.3 ± 0.8 µM,–
Cc1cc(F)ccc1NS(=O)(=O)c1cc(-c2c(C)noc2C)ccc1C [compound 4],7.4 ± 0.5 µM,–
COc1cc(C(=O)C(=Cc2ccncc2)c2nc3ccccc3o2)cc(OC)c1OC [compound 5],4.3 ± 0.2 µM,–
O=C1c2ccc(Oc3cccc(Oc4ccc5c(c4)C(=O)N(c4ccc(O)cc4)C5=O)c3)cc2C(=O)N1c1ccc(O)cc1 [compound 7],1.1 ± 0.1 µM,–
"CC(=O)N1CCc2c(sc3nc(SCC(=O)Nc4cccnc4C)n(Cc4ccco4)c(=O)c23)C1 [compound 34, 2-((7-Acetyl-3-(furan-2-ylmethyl)-4-oxo-3,4,5,6,7,8-hexahydropyrido[4’,3’:4,5]thieno[2,3-d]pyrimidin-2-yl)thio)-N-(2-methylpyridin-3-yl)acetamide]",1.3 µM,% inhibition at 1 μM [2]: 54%; % inhibition at 1 μM [3]: 52%; EC50 [4]: > 25 µM; EC50 [5]: > 25 µM
